Measured values taken from patent US20220281876A1, “DEGRADATION OF BRUTON'S TYROSINE KINASE (BTK) BY CONJUGATION OF BTK INHIBITORS WITH E3 LIGASE LIGAND AND METHODS OF USE” (BEIGENE, LTD., priority 2019, published 2022).

Molecular target: T1, BTK (Homo sapiens, UniProt Q06187)
T1 construct: endogenous in cells; host or cells: Ramos cells
Experiment: BTK cell degradation in Ramos cells (total BTK ELISA)
Format: cell-based
Conditions: 16 h incubation, FastScan total BTK ELISA
Method: Ramos cells are treated with compounds diluted in 0.1% DMSO, dilution is done according to the following protocol: (1) make 1000x stock solution in DMSO from 10 mM by 5-fold dilution, total 7 doses were included; (2) make 10x solution in cell culture medium by transferring 1 ul 1000x stock solution into 99 ul medium; (3) 11 ul of 10× solution is added to cells and incubate for 16 h.
Cells in 96 well plate are harvested by centrifugation (1200 rpm), and wash once with ice-cold PBS. Then, 100 ul 1×cell extraction buffer is added in each well. The cells are placed on a shaker for 20 min at 4° C.; 5 ul lysate is transferred to 45 ul of 1×cell extraction buffer in ELISA plate, and 50 ul of the antibody cocktail is added in each well; seal the plate and incubate 1 hour at room temperature on a plate shaker; medium is discarded from the plate, tap the plated on a paper towel, wash 3×200 ul ELISA wash buffer; add 100 ul of TMB to each well and incubate the plate in the dark for 15 min at room temperature on a shaker; add 100 ul of STOP solution to each well; read absorbance at 450 nm. The BTK ELISA assay was performed using FastScan total BTK ELISA kit (Cell Signaling Cat #36609).

T1 sequence (Q06187 whole entry): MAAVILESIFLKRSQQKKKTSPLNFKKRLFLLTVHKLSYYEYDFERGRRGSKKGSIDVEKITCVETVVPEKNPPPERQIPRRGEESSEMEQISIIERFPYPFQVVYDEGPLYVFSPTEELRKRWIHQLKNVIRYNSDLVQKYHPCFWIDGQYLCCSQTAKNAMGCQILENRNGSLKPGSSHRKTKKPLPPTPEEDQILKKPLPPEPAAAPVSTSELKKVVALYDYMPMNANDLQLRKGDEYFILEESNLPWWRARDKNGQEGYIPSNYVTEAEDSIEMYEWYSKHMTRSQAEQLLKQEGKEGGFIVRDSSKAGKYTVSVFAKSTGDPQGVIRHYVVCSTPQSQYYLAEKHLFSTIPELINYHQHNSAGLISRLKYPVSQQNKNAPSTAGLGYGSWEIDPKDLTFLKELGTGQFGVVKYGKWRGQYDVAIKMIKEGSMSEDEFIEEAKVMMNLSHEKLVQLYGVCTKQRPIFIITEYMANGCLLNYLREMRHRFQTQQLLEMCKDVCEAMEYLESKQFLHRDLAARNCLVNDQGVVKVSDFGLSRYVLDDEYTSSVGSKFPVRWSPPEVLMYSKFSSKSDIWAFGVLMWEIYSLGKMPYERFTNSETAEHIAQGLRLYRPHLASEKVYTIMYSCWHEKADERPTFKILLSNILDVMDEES

DC50 | Structure (SMILES)
> 10000 nM | NC(=O)c1c(-c2ccc(Oc3ccccc3)cc2)nn2c1NCC[C@H]2C1CCN(C(=O)c2cn(CCOCCOCCNc3ccc4c(c3)C(=O)N(C3CCC(=O)NC3=O)C4=O)nn2)CC1 (stereo partly drawn) [Example 7, (7S)-7-(1-(1-(2-(2-(2-((2-(2,6-dioxopiperidin-3-yl)-1,3-dioxoisoindolin-5-yl)amino)ethoxy)ethoxy)ethyl)-1H-1,2,3-triazole-4-carbonyl)piperidin-4-yl)-2-(4-phenoxyphenyl)-4,5,6,7-tetrahydropyrazolo[1,5-a]pyrimidine-3-carboxamide]
128 nM | NC(=O)c1c(-c2ccc(Oc3ccccc3)cc2)nn2c1NCC[C@H]2C1CCN(C(=O)c2cn(CCOCCOCCOCCNc3cccc4c3C(=O)N(C3CCC(=O)NC3=O)C4=O)nn2)CC1 (stereo partly drawn) [Example 8, (7S)-7-(1-(1-(2-(2-(2-(2-((2-(2,6-dioxopiperidin-3-yl)-1,3-dioxoisoindolin-4-yl)amino)ethoxy)ethoxy)ethoxy)ethyl)-1H-1,2,3-triazole-4-carbonyl)piperidin-4-yl)-2-(4-phenoxyphenyl)-4,5,6,7-tetrahydropyrazolo[1,5-a]pyrimidine-3-carboxamide]
> 10000 nM | NC(=O)c1c(-c2ccc(Oc3ccccc3)cc2)nn2c1NCC[C@H]2C1CCN(C(=O)c2cn(CCOCCOCCOCC#Cc3cccc4c3CN(C3CCC(=O)NC3=O)C4=O)nn2)CC1 (stereo partly drawn) [Example 9, (7S)-7-(1-(1-(2-(2-(2-((3-(2-(2,6-dioxopiperidin-3-yl)-1-oxoisoindolin-4-yl)prop-2-yn-1-yl)oxy)ethoxy)ethoxy)ethyl)-1H-1,2,3-triazole-4-carbonyl)piperidin-4-yl)-2-(4-phenoxyphenyl)-4,5,6,7-tetrahydropyrazolo[1,5-a]pyrimidine-3-carboxamide]
> 10000 nM | NC(=O)c1c(-c2ccc(Oc3ccccc3)cc2)nn2c1NCC[C@H]2C1CCN(C(=O)c2cn(CCOCCOCCOCCOCCCc3cccc4c3CN(C3CCC(=O)NC3=O)C4=O)nn2)CC1 (stereo partly drawn) [Example 10, (7S)-7-(1-(1-(15-(2-(2,6-dioxopiperidin-3-yl)-1-oxoisoindolin-4-yl)-3,6,9, 12-tetraoxapentadecyl)-1H-1,2,3-triazole-4-carbonyl)piperidin-4-yl)-2-(4-phenoxyphenyl)-4,5,6,7-tetrahydropyrazolo[1,5-a]pyrimidine-3-carboxamide]
176 nM | NC(=O)c1c(-c2ccc(Oc3ccccc3)cc2)nn2c1NCC[C@H]2C1CCN(C(=O)c2cn(CCOCCOCCOCCOCC#Cc3cccc4c3CN(C3CCC(=O)NC3=O)C4=O)nn2)CC1 (stereo partly drawn) [Example 11, (7S)-7-(1-(1-(15-(2-(2,6-dioxopiperidin-3-yl)-1-oxoisoindolin-4-yl)-3,6,9, 12-tetraoxapentadec-14-yn-1-yl)-1H-1,2,3-triazole-4-carbonyl)piperidin-4-yl)-2-(4-phenoxyphenyl)-4,5,6,7-tetrahydropyrazolo[1,5-a]pyrimidine-3-carboxamide]
> 10000 nM | NC(=O)c1c(-c2ccc(Oc3ccccc3)cc2)nn2c1NCC[C@H]2C1CCN(C(=O)c2cn(CCOCCOCCOCCOCCNc3ccc4c(c3)C(=O)N(C3CCC(=O)NC3=O)C4=O)nn2)CC1 (stereo partly drawn) [Example 12, (7S)-7-(1-(1-(14-((2-(2,6-dioxopiperidin-3-yl)-1,3-dioxoisoindolin-5-yl)amino)-3,6,9, 12-tetraoxatetradecyl)-1H-1,2,3-triazole-4-carbonyl)piperidin-4-yl)-2-(4-phenoxyphenyl)-4,5,6,7-tetrahydropyrazolo[1,5-a]pyrimidine-3-carboxamide]
78 nM | NC(=O)c1c(-c2ccc(Oc3ccccc3)cc2)nn2c1NCC[C@H]2C1CCN(C(=O)c2cn(CCOCCOCCOCCOCCOCCNc3ccc4c(c3)C(=O)N(C3CCC(=O)NC3=O)C4=O)nn2)CC1 (stereo partly drawn) [Example 14, (7S)-7-(1-(1-(17-((2-(2,6-dioxopiperidin-3-yl)-1,3-dioxoisoindolin-5-yl)amino)-3,6,9, 12, 15-pentaoxaheptadecyl)-1H-1,2,3-triazole-4-carbonyl)piperidin-4-yl)-2-(4-phenoxyphenyl)-4,5,6,7-tetrahydropyrazolo[1,5-a]pyrimidine-3-carboxamide]
78 nM | NC(=O)c1c(-c2ccc(Oc3ccccc3)cc2)nn2c1NCC[C@H]2C1CCN(C(=O)c2cn(CCOCCOCCOCCOCCOCCNc3cccc4c3C(=O)N(C3CCC(=O)NC3=O)C4=O)nn2)CC1 (stereo partly drawn) [Example 15, (7S)-7-(1-(1-(17-((2-(2,6-dioxopiperidin-3-yl)-1,3-dioxoisoindolin-4-yl)amino)-3,6,9, 12, 15-pentaoxaheptadecyl)-1H-1,2,3-triazole-4-carbonyl)piperidin-4-yl)-2-(4-phenoxyphenyl)-4,5,6,7-tetrahydropyrazolo[1,5-a]pyrimidine-3-carboxamide]
107 nM | NC(=O)c1c(-c2ccc(Oc3ccccc3)cc2)nn2c1NCC[C@H]2C1CCN(C(=O)c2cn(CCOCCOCCOCCOCCOCCOCCNc3cccc4c3C(=O)N(C3CCC(=O)NC3=O)C4=O)nn2)CC1 (stereo partly drawn) [Example 16, (7S)-7-(1-(1-(20-((2-(2,6-dioxopiperidin-3-yl)-1,3-dioxoisoindolin-4-yl)amino)-3,6,9, 12, 15, 18-hexaoxaicosyl)-1H-1,2,3-triazole-4-carbonyl)piperidin-4-yl)-2-(4-phenoxyphenyl)-4,5,6,7-tetrahydropyrazolo[1,5-a]pyrimidine-3-carboxamide]
> 10000 nM | NC(=O)c1c(-c2ccc(Oc3ccccc3)cc2)nn2c1NCC[C@H]2C1CCN(C(=O)c2cn(CCOCCOCCOCCOCCOCCOCCOCCNc3cccc4c3C(=O)N(C3CCC(=O)NC3=O)C4=O)nn2)CC1 (stereo partly drawn) [Example 17, (7S)-7-(1-(1-(23-((2-(2,6-dioxopiperidin-3-yl)-1,3-dioxoisoindolin-4-yl)amino)-3,6,9, 12, 15, 18, 21-heptaoxatricosyl)-1H-1,2,3-triazole-4-carbonyl)piperidin-4-yl)-2-(4-phenoxyphenyl)-4,5,6,7-tetrahydropyrazolo[1,5-a]pyrimidine-3-carboxamide]
236 nM | NC(=O)c1c(-c2ccc(Oc3ccccc3)cc2)nn2c1NCC[C@H]2C1CCN(C(=O)CCCc2cn(CCOCCNc3cccc4c3C(=O)N(C3CCC(=O)NC3=O)C4=O)nn2)CC1 (stereo partly drawn) [Example 18, (7S)-7-(1-(4-(1-(2-(2-((2-(2,6-dioxopiperidin-3-yl)-1,3-dioxoisoindolin-4-yl)amino)ethoxy)ethyl)-1H-1,2,3-triazol-4-yl)butanoyl)piperidin-4-yl)-2-(4-phenoxyphenyl)-4,5,6,7-tetrahydropyrazolo[1,5-a]pyrimidine-3-carboxamide]
6410 nM | NC(=O)c1c(-c2ccc(Oc3ccccc3)cc2)nn2c1NCC[C@H]2C1CCN(C(=O)CCCc2cn(CCCCNC(=O)COc3cccc4c3C(=O)N(C3CCC(=O)NC3=O)C4=O)nn2)CC1 (stereo partly drawn) [Example 19, (7S)-7-(1-(4-(1-(4-(2-((2-(2,6-dioxopiperidin-3-yl)-1,3-dioxoisoindolin-4-yl)oxy)acetamido)butyl)-1H-1,2,3-triazol-4-yl)butanoyl)piperidin-4-yl)-2-(4-phenoxyphenyl)-4,5,6,7-tetrahydropyrazolo[1,5-a]pyrimidine-3-carboxamide]
> 10000 nM | NC(=O)c1c(-c2ccc(Oc3ccccc3)cc2)nn2c1NCC[C@H]2C1CCN(C(=O)CCCc2cn(CCOCCOCCNc3cccc4c3C(=O)N(C3CCC(=O)NC3=O)C4=O)nn2)CC1 (stereo partly drawn) [Example 20, (7S)-7-(1-(4-(1-(2-(2-(2-((2-(2,6-dioxopiperidin-3-yl)-1,3-dioxoisoindolin-4-yl)amino)ethoxy)ethoxy)ethyl)-1H-1,2,3-triazol-4-yl)butanoyl)piperidin-4-yl)-2-(4-phenoxyphenyl)-4,5,6,7-tetrahydropyrazolo[1,5-a]pyrimidine-3-carboxamide]
388 nM | NC(=O)c1c(-c2ccc(Oc3ccccc3)cc2)nn2c1NCC[C@H]2C1CCN(C(=O)CCCc2cn(CCOCCOCCOCCNc3cccc4c3C(=O)N(C3CCC(=O)NC3=O)C4=O)nn2)CC1 (stereo partly drawn) [Example 21, (7S)-7-(1-(4-(1-(2-(2-(2-(2-((2-(2,6-dioxopiperidin-3-yl)-1,3-dioxoisoindolin-4-yl)amino)ethoxy)ethoxy)ethoxy)ethyl)-1H-1,2,3-triazol-4-yl)butanoyl)piperidin-4-yl)-2-(4-phenoxyphenyl)-4,5,6,7-tetrahydropyrazolo[1,5-a]pyrimidine-3-carboxamide]
34 nM | NC(=O)c1c(-c2ccc(Oc3ccccc3)cc2)nn2c1NCC[C@H]2C1CCN(CCOCCOCC(=O)Nc2ccc3c(c2)C(=O)N(C2CCC(=O)NC2=O)C3=O)CC1 (stereo partly drawn) [Example 24, (7S)-7-(1-(2-(2-(2-((2-(2,6-dioxopiperidin-3-yl)-1,3-dioxoisoindolin-5-yl)amino)-2-oxoethoxy)ethoxy)ethyl)piperidin-4-yl)-2-(4-phenoxyphenyl)-4,5,6,7-tetrahydropyrazolo[1,5-a]pyrimidine-3-carboxamide]
> 10000 nM | NC(=O)c1c(-c2ccc(Oc3ccccc3)cc2)nn2c1NCC[C@H]2C1CCN(C(=O)COCCCCCCCCNC(=O)COc2cccc3c2CN(C2CCC(=O)NC2=O)C3=O)CC1 (stereo partly drawn) [Example 25, (7S)-7-(1-(2-((8-(2-((2-(2,6-dioxopiperidin-3-yl)-1-oxoisoindolin-4-yl)oxy)acetamido)octyl)oxy)acetyl)piperidin-4-yl)-2-(4-phenoxyphenyl)-4,5,6,7-tetrahydropyrazolo[1,5-a] pyrimidine-3-carboxamide]
